From patent US9133417B2, “Liquid cleaning and disinfecting compositions comprising an assymetrically branched amine oxide” (THE PROCTER & GAMBLE COMPANY, priority 2012, dated 2015)

Assays:
Conditions in all cases: Shake Flask, 1 hour contact (T1h vs T0), incubation 32 °C 24 hours; test concentration not given
[1] = system: Pseudomonas Aeruginosa (PA) CIP 82.113
Method: (§1) The antibacterial efficacy was tested following the below Shake Flask protocol:
(§2) • Microbial strains: Staphylococcus aureus (SA) CIP 4.83, Escherichia Coli (EC) CIP 53.126, Pseudomonas Aeruginosa (PA) CIP 82.113 • Culture media: TSA medium—Neutralizing medium (Dey Engley Broth)—Buffered Peptoned water (BPW-F)—Shake flask bottles—Physiological water • Incubator Shake Flask Protocol: ASTM E2149 Shake Flask Method • Inoculum counting: • For each strain, prepare an inoculum at 0.5 Mc Farland (McF). Dilute 1 ml of the inoculum with 9 ml of physiological water. Select 1 ml of the resulting dilution and dilute again with 9 ml of physiological water. Execute 5 dilution steps accordingly so that a 10^−5 dilution is obtained. • Recover 100 microliter of the 10^−5 dilution and inoculate 2 petri dishes. • Add 20 ml of TSA medium. • Incubate at 32+/−0.5° C. during 24 hours • Negative control: • Put 5 ml of SA, EC or PA inoculums into a shake flask. Add 45 ml of pure BPW-F solution. • Dilute twice in neutralizing medium: Recover 1 ml of the pure solution and add 9 ml of the neutralizing medium (=10^−1 and 10^−2 dilution). • Wait 5 minutes and put 100 microliter of the pure solution and the 10^−2 dilution into 2 petri dishes, add 20 ml of TSA medium (T0). • Do the same operation after 1 hour (T1h). • Incubate at 32+/−0:5° C. during 24 hours • Sample testing: • Prepare a solution at a specified concentration (see data tables for actual concentrations as 100% active—final volume 50 ml). For example, for a 50% (V/V), dilute 25 ml of product with 20 ml of BPW-F and 5 ml of the inoculums (SA, EC or PA) at 0.5 McF. • Dilute twice in neutralizing medium: Recover 1 ml of the pure solution and add 9 ml of the neutralizing medium (=10^−1 and 10^−2 dilution). • Wait 5 minutes and put 100 microliter of the pure solution and the 10^−2 dilution into 2 petri dishes, add 20 ml of TSA medium (T0). • Do the same operation after 1 hour (T1h). • Incubate at 32+/−0.5° C. during 24 hours • Calculation of log reduction: • The log reduction is calculated as log (T0/T1h)

[2] = system: Staphylococcus aureus (SA) CIP 4.83
Method: as §1, §2

[3] = system: Escherichia Coli (EC) CIP 53.126
Method: as §1, §2

| Substance | log reduction, log (T0/T1h), Ps Aeroginosa [1] | log reduction, log (T0/T1h), St. Aureus [2] | log reduction, log (T0/T1h), E. coli [3] |
| --- | --- | --- | --- |
| asymmetrically branched C12-14 alkyl dimethyl amine oxide | 3.98 | 4.06 | – |
| linear C12-14 alkyl dimethyl amine oxide [reference compound] | 2.10 | 0.73 | 0.41 |
| symmetrically branched C12-14 alkyl dimethyl amine oxide | 3.29 | – | 2.6 |
